Converted amounts (≈) assume the structure as drawn. Where two headings read alike, the source gives them in different places. Values belong to the compound of their own block, whether it stands above or below them.
Key:
[1] = CD-1 Mouse Whole Blood Stability Assay; format: in vitro ADME; conditions: Table B-6, incubation at 37° C.
[2] = tested on: SJSA-1; test: Cell proliferation (Alamar Blue) assay, SJSA-1; format: cell-based, human; conditions: Homo sapiens, SJSA-1, 24 h
Experimental: (§1) Cell viability assay was performed to assess the potency of the compounds in human cancer cell lines 786-0 (renal cell carcinoma) and SJSA-1 (osteosarcoma). Additional cell lines, such as pancreatic cancer cell lines (Panc 02.13, BxPC-3, Panc 12, Panc 02.03, Panc 6.03, PSN-1, HPAC, and Capan-1), prostate cancer cell lines (PC-3, DU145, 22Rv1, NCI-H660, BPH1, LNCaP, BM-1604, and MDA PCa 2b), etc., can be tested in a similar method.
(§2) Cells (SJSA-1, 786-0 and A431) were seeded (5000 cells/100 μL/well) in 96-well tissue culture plate and incubated at 37° C./5% CO2 for 16-24 hours. The cells were then treated with compounds (25 μL of 5×). The compound concentrations were 10-0.0005 μM prepared in 3-fold serial dilutions with final DMSO concentration of 1%. The plates were then incubated for 24 h at 37° C./5% CO2 in a moist environment. Then Alamar Blue™ reagent (final concentration 1×-12.5 μL) was added to each well and incubated for 1.5 hours at 37° C./5% CO2. The plates were read on fluorescence reader at 540 nm excitation and 590 nm emission wavelengths. The IC50 values were subsequently determined using a sigmoidal dose-response curve (variable slope) in GraphPad Prism® 5 software. Table A-3, Table B-3 and Table C-3 show cell proliferation data for certain compounds as described herein.

[3] = tested on: A431; test: Cell proliferation (Alamar Blue) assay, A431; format: cell-based, human; conditions: Homo sapiens, A-431, 24 h
Experimental: as §1, §2

[4] = tested on: 786-O; test: Cell proliferation (Alamar Blue) assay, 786-O; format: cell-based, human; conditions: Homo sapiens, 786-0, 24 h
Experimental: as §1, §2

[5] = Equilibrium solubility at different pHs and with SBECD; format: physicochemical; conditions: thermodynamic from solid
[6] = Kinetic solubility (PBS, pH 7.4); format: physicochemical; conditions: aqueous buffer, kinetic from dmso stock
[7] = Human blood stability; format: in vitro ADME
[8] = Rat IV pharmacokinetics (2 mg/kg); format: in vivo; conditions: male, SD, plasma, read-out: Rat IV-PK CL
Description: Institutional Animal Ethical Committee (IAEC) of Jubilant Biosys (IAEC/JDC/2019/188R (for Mice) and IAEC/JDC/2019/189R (for Rat) nominated by CPCSEA (Committee for the Purpose of Control and Supervision of Experiments on Animals) approved the mice and rat pharmacokinetic experiments. Male Balb/c mice (˜6-8 weeks old with body weight range of 22-25 g) and male SD rats (6-8 weeks old with body weight range of 200-250 g) were procured from Vivo Biotech, Hyderabad, India. Animals were quarantined in Jubilant Biosys Animal House for a period of 7 days with a 12:12 h light: dark cycles, and prior to the study the animals were stratified as per body weight.
B) Procedure for rat: Intravenous and oral pharmacokinetics study was done at a dose 2 and 10 mg/kg at dose volume of 2 and 10 mL/Kg. Serial blood sampling was done and at each time point (˜200 μL) were collected from retro-orbital plexus at 0.083 (Only for IV), 0.25, 0.5, 1, 2, 4, 8, 10 (only for PO) and 24 h. Blood samples were collected in tubes containing K2.EDTA as anticoagulant and centrifuged for 5 min at 10,000 rpm in a refrigerated centrifuge (Biofuge, Heraeus, Germany) maintained at 4° C. for plasma separation.
Group I (IV) received test compound intravenously by tail vein at 2 mg/Kg in solution formulation prepared using 30% Kolliphore EL in WFI; dose volume: 2 mL/Kg; strength: 1 mg/mL.
Blood concentration-time data of test compound was analyzed by non-compartmental method using Phoenix WinNonlin Version 8.1.

[9] = Table B-3, head prints SJSB-1, 24 h, read-out: IC50 (μM) SJSB-1

SMILES: C#CC(=O)N1[C@@H](CCCC)Cc2c([nH]c3c(F)cc(F)cc23)[C@@H]1C1CCN(C(=O)OC)CC1 [Compound B-28]
CD-1 Mouse Whole Blood Stability % Remaining ([1]; 0 min): 100.0%
CD-1 Mouse Whole Blood Stability % Remaining ([1]; 30 min): 9.6%
CD-1 Mouse Whole Blood Stability % Remaining ([1]; 60 min): 2.1%
IC50 [2, 9]: 0.06 µM
IC50 ([3]; Table B-3, A431 cells): 8.1 µM
IC50 ([4]; Table B-3, 786-O cells): 0.032 µM

SMILES: C#CC(=O)N1[C@@H](CCCC)Cc2c([nH]c3ncccc23)[C@@H]1c1ccc(NC23CC4CC(CC(C4)C2)C3)cc1 [Compound A-7]
IC50 ([2]; Table A-3, SJSA-1 cells, 24 h, read-out: IC50 (μM) SJSA-1): 0.058 µM
IC50 ([3]; Table A-3, A431 cells): 4.88 µM
IC50 ([4]; Table A-3, 786-O cells): 0.034 µM

SMILES: C#CC(=O)N1[C@@H](CCCC)Cc2c([nH]c3c(F)cc(F)cc23)[C@@H]1c1ccc(N2CCN(C(C)=O)CC2)c(C#N)c1 [Compound B-32]
solubility ([5]; aqueous buffer, pH 3.0, read-out: Eq. solubility pH 3.0): < 1 µg/mL
solubility ([5]; aqueous buffer, pH 3.0 PBS buffer, read-out: Eq. solubility pH 3.0 PBS buffer): < 1 µg/mL
solubility ([5]; aqueous with cosolvent or surfactant or cyclodextrin, 20% SBECD (sulfobutyl ether cyclodextrin), read-out: Eq. solubility 20% SBECD): 9 to 18 µg/mL (≈ 16.6 to 33.1 µM)
IC50 [2, 9]: 0.029 µM
solubility kinetic ([6]; Table B-7): < 1 µM
IC50 ([4]; Table B-3, 786-O cells): 0.018 µM

SMILES: C#CC(=O)N1[C@@H](CCCC)Cc2c([nH]c3c(F)cc(F)cc23)[C@@H]1c1ccc(-c2nnn[nH]2)cc1 [Compound B-50]
CD-1 Mouse Whole Blood Stability % Remaining ([1]; 0 min): 100%
CD-1 Mouse Whole Blood Stability % Remaining ([1]; 30 min): 22.3%
CD-1 Mouse Whole Blood Stability % Remaining ([1]; 60 min): 10.5%

SMILES: C#CC(=O)N1[C@@H](CCCC)Cc2c([nH]c3c(F)cc(F)cc23)[C@@H]1c1ccc(NC23CC4CC(CC(C4)C2)C3)cc1 [Compound B-65]
IC50 [2, 9]: 0.016 µM
IC50 ([3]; Table B-3, A431 cells): 3.53 µM
IC50 ([4]; Table B-3, 786-O cells): 0.015 µM

SMILES: C#CC(=O)N1[C@@H](CCCC)Cc2c([nH]c3ccccc23)[C@@H]1c1ccc(C(=O)NCCOC)cc1 [Compound B-3, 4-((1S,3S)-3-butyl-2-propioloyl-2,3,4,9-tetrahydro-1H-pyrido[3,4-b]indol-1-yl)-N-(2-methoxyethyl)benzamide]
human blood stability % remaining ([7]; 15 min): 90%_15
human blood stability % remaining ([7]; 30 min): 55%_30
human blood stability % remaining ([7]; 45 min): 36%_45
human blood stability % remaining ([7]; 60 min): 22%_60
human blood stability % remaining ([7]; 120 min): 1.5%_120
IC50 [2, 9]: 0.018 µM
solubility kinetic ([6]; Table B-4): 4 µM (≈ 1.83 µg/mL)
IC50 ([3]; Table B-3, A431 cells): 4.7 µM
clearance [8]: 348 mL/min/kg
IC50 ([4]; Table B-3, 786-O cells): 0.009 µM

Second part, the compound after the results:

IC50 [2, 9]: 0.22 µM
IC50 ([3]; Table B-3, A431 cells): > 10 µM
IC50 ([4]; Table B-3, 786-O cells): 0.14 µM
SMILES: C#CC(=O)N1[C@@H](CCCC)Cc2c([nH]c3c(F)cc(F)cc23)[C@@H]1CCC [Compound B-73]

IC50 ([2]; Table C-3, SJSA-1 cells, 24 h, read-out: IC50 (μM) SJSA-1): 0.045 µM
IC50 ([3]; Table C-3, A431 cells): 4.4 µM
IC50 ([4]; Table C-3, 786-O cells): 0.048 µM
SMILES: C#CC(=O)N1[C@@H](CCCC)Cc2c([nH]c3c(F)cc(F)cc23)[C@@H]1CCCC [Compound C-4]

IC50 [2, 9]: 0.16 µM
IC50 ([3]; Table B-3, A431 cells): 6.57 µM
IC50 ([4]; Table B-3, 786-O cells): 0.166 µM
SMILES: C#CC(=O)N1[C@@H](CCCC)Cc2c([nH]c3c(F)cc(F)cc23)[C@@H]1C1CCC(O)CC1 (stereo partly shown) [Compound B-77]

From patent US20220227765A1, “PYRIDO-INDOLE ANALOGUES AS GPX4 INHIBITORS” (Ferro Therapeutics, Inc., priority 2019, published 2022)
